Reference: US10316017B2, “COT modulators and methods of use thereof” (Gilead Sciences, Inc., priority 2015, dated 2019)

Assays:
[1] = molecular target: T1, human Cot catalytic domain (30-397 amino acids) (Homo sapiens, UniProt P41279); test: High Throughput Cot Biochemical Assay (KinEASE TR-FRET); conditions: Cot KinEASE TR-FRET (HTRF) biochemical assay, 400 μM ATP; read-out: IC50 HTRF
T1 construct: Purified recombinant human Cot catalytic domain (30-397 amino acids) was purchased from Cama Biosciences; purchased Cama Biosciences (so in the source)
T1 sequence (P41279 30-397): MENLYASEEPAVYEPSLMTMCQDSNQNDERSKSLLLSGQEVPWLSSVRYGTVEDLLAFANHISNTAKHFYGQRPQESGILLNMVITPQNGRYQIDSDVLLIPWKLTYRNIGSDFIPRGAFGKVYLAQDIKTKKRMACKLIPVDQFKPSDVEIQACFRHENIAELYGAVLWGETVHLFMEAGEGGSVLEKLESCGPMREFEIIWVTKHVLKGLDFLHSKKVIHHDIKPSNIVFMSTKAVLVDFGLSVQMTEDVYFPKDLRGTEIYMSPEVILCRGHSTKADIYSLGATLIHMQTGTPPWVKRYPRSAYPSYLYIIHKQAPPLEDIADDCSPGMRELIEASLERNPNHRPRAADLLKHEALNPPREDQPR
In short: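 TR-FRET (KinEASE) read-out: Eu-labelled phospho-specific antibody binds XL665-tagged STK3 peptide (1 μM) phosphorylated by 5 nM human Cot kinase domain (residues 30-397). Reaction at 400 μM ATP, pH 7.0 MOPS buffer with 10 mM MgOAc, 1 mM DTT and 0.1% DMSO.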

[2] = tested on: TNFα production in LPS-stimulated human monocytes; test: Cot Monocyte TNFα Cell Based Assay; conditions: Homo sapiens, Monocyte, TNFα in LPS-stimulated human monocytes; read-out: EC50 TNF
In short: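 TNFα release quantified by two-antibody TR-FRET, normalised to unstimulated (0%) and LPS-stimulated (100%) wells. Cells got a 1 h compound exposure at 37° C in 0.5% DMSO before 4 h challenge with 50 pg/ml LPS, at 5,000 cells/well.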

Structure (SMILES) | IC50 [1] [nM] | EC50 [2] [nM]
[2H][C@](Nc1cc(Cl)c2ncc(C#N)c(NC3CC(F)(F)C3)c2c1)(c1ccc(F)cc1)c1cn(C2CC2)nn1 [Example 204, (S)-8-chloro-6-(((1-cyclopropyl-1H-1,2,3-triazol-4-yl)(4-fluorophenyl)methyl-d)amino)-4-((3,3-difluorocyclobutyl)amino)quinoline-3-carbonitrile] | 97 | 1060
[2H][C@](Nc1cc(Cl)c2ncc(C#N)c(NC3CC(C)(C)C3)c2c1)(c1ccc(F)cc1)c1cn(C2CC2)nn1 [Example 205, (S)-8-chloro-6-(((1-cyclopropyl-1H-1,2,3-triazol-4-yl)(4-fluorophenyl)methyl-d)amino)-4-((3,3-dimethylcyclobutyl)amino)quinoline-3-carbonitrile] | 38 | 873
[2H][C@](Nc1cc(Cl)c2ncc(C#N)c(Nc3cccc(Cl)c3Cl)c2c1)(c1ccc(F)cc1)c1cn(C2CC2)nn1 [Example 206, (S)-8-chloro-6-(((1-cyclopropyl-1H-1,2,3-triazol-4-yl)(4-fluorophenyl)methyl-d)amino)-4-((2,3-dichlorophenyl)amino)quinoline-3-carbonitrile] | 52 | 547
CC(C)(C)CNc1c(C#N)cnc2c(Cl)cc(N[C@H](c3cn(C4CC4)nn3)c3ccc(F)cc3Cl)cc12 [Example 207, (S)-8-chloro-6-(((2-chloro-4-fluorophenyl) (1-cyclopropyl-1H-1,2,3-triazol-4-yl)methyl)amino)-4-(neopentylamino) quinoline-3-carbonitrile] | 17 | 305
[2H][C@](Nc1cc(C#N)c2ncc(C#N)c(N[C@H](CC)c3ccccc3)c2c1)(c1ccc(F)cc1)c1cn(C)nn1 [Example 208, 6-(((S)-(4-fluorophenyl)(1-methyl-1H-1,2,3-triazol-4-yl)methyl-d)amino)-4-(((R)-1-phenylpropyl)amino) quinoline-3,8-dicarbonitrile] | 3 | 83
[2H][C@](Nc1cc(C#N)c2ncc(C#N)c(NCC(C)(C)C)c2c1)(c1ccc(F)cc1)c1cn(C)nn1 [Example 209, (S)-6-(((4-fluorophenyl)(1-methyl-1H-1,2,3-triazol-4-yl)methyl-d)amino)-4-(neopentylamino) quinoline-3,8-dicarbonitrile] | 3 | 83
CC[C@@H](Nc1c(C#N)cnc2c(C#N)cc(N[C@H](c3cn(C4CC4)nn3)c3ccccc3Cl)cc12)c1ccccc1 [Example 210, 6-(((S)-(2-chlorophenyl)(1-cyclopropyl-1H-1,2,3-triazol-4-yl)methyl)amino)-4-(((R)-1-phenylpropyl)amino) quinoline-3,8-dicarbonitrile] | 6 | 243
CC(C)(C)CNc1c(C#N)cnc2c(C#N)cc(N[C@H](c3cn(C4CC4)nn3)c3ccccc3Cl)cc12 [Example 211, (S)-6-(((2-chlorophenyl)(1-cyclopropyl-1H-1,2,3-triazol-4-yl)methyl)amino)-4-(neopentylamino) quinoline-3,8-dicarbonitrile] | 6 | 173
[2H][C@](Nc1cc(Cl)c2ncc(C#N)c(NC3(C)CC(F)(F)C3)c2c1)(c1ccc(F)cc1)c1cn(C2CC2)nn1 [Example 212, (S)-8-chloro-6-(((1-cyclopropyl-1H-1,2,3-triazol-4-yl)(4-fluorophenyl)methyl-d)amino)-4-((3,3-difluoro-1-methylcyclobutyl)amino) quinoline-3-carbonitrile] | 169 | 2180
[2H][C@](Nc1cc(Cl)c2ncc(C#N)c(NC(C)(C)C(C)C)c2c1)(c1ccc(F)cc1)c1cn(C2CC2)nn1 [Example 213, (S)-8-chloro-6-(((1-cyclopropyl-1H-1,2,3-triazol-4-yl)(4-fluorophenyl)methyl-d)amino)-4-((2,3-dimethylbutan-2-yl)amino)quinoline-3-carbonitrile] | 24 | 407
[2H][C@](Nc1cc(Cl)c2ncc(C#N)c(NC3(C)COC3)c2c1)(c1ccc(F)cc1)c1cn(C2CC2)nn1 [Example 214, (S)-8-chloro-6-(((1-cyclopropyl-1H-1,2,3-triazol-4-yl)(4-fluorophenyl)methyl-d)amino)-4-((3-methyloxetan-3-yl)amino)quinoline-3-carbonitrile] | 151 | 4220
[2H][C@](Nc1cc(Cl)c2ncc(C#N)c(NC3CCC3)c2c1)(c1ccc(F)cc1)c1cn(C2CC2)nn1 [Example 215, (S)-8-chloro-4-(cyclobutylamino)-6-(((1-cyclopropyl-1H-1,2,3-triazol-4-yl)(4-fluorophenyl)methyl-d)amino)quinoline-3-carbonitrile] | 119 | 2880
[2H][C@](Nc1cc(Cl)c2ncc(C#N)c(NC3(CC)CC3)c2c1)(c1ccc(F)cc1)c1cn(C2CC2)nn1 [Example 216, (S)-8-chloro-6-(((1-cyclopropyl-1H-1,2,3-triazol-4-yl)(4-fluorophenyl)methyl-d)amino)-4-((1-ethylcyclopropyl)amino)quinoline-3-carbonitrile] | 492 | 5720
[2H][C@](Nc1cc(Cl)c2ncc(C#N)c(NC3(C#N)CC3)c2c1)(c1ccc(F)cc1)c1cn(C2CC2)nn1 [Example 217, (S)-8-chloro-4-((1-cyanocyclopropyl)amino)-6-(((1-cyclopropyl-1H-1,2,3-triazol-4-yl)(4-fluorophenyl)methyl-d)amino)quinoline-3-carbonitrile] | 327 | 3580
[2H][C@](Nc1cc(Cl)c2ncc(C#N)c(NC3(CC)CCC3)c2c1)(c1ccc(F)cc1)c1cn(C2CC2)nn1 [Example 218, (S)-8-chloro-6-(((1-cyclopropyl-1H-1,2,3-triazol-4-yl)(4-fluorophenyl)methyl-d)amino)-4-((1-ethylcyclobutyl)amino)quinoline-3-carbonitrile] | 432 | 5390
[2H][C@](Nc1cc(Cl)c2ncc(C#N)c(NC3(C)CCC3)c2c1)(c1ccc(F)cc1)c1cn(C2CC2)nn1 [Example 219, (S)-8-chloro-6-(((1-cyclopropyl-1H-1,2,3-triazol-4-yl)(4-fluorophenyl)methyl-d)amino)-4-((1-methylcyclobutyl)amino)quinoline-3-carbonitrile] | 534 | 4930
[2H][C@](Nc1cc(Cl)c2ncc(C#N)c(NC3CC3)c2c1)(c1ccc(F)cc1)c1cn(C2CC2)nn1 [Example 220, (S)-8-chloro-6-(((1-cyclopropyl-1H-1,2,3-triazol-4-yl)(4-fluorophenyl)methyl-d)amino)-4-(cyclopropylamino)quinoline-3-carbonitrile] | 296 | 1620
[2H][C@](Nc1cc(C)c2ncc(C#N)c(N[C@H](CC)c3ccccc3)c2c1)(c1ccc(F)cc1)c1cn(C2CC2)nn1 [Example 221, 6-(((S)-(1-cyclopropyl-1H-1,2,3-triazol-4-yl)(4-fluorophenyl)methyl-d)amino)-8-methyl-4-(((R)-1-phenylpropyl)amino)quinoline-3-carbonitrile] | 244 | 2520
[2H][C@](Nc1cc(Cl)c2ncc(C#N)c(NN(CC)c3ccccc3)c2c1)(c1ccc(F)cc1)c1cn(C2CC2)nn1 [Example 222, (S)-8-chloro-6-(((1-cyclopropyl-1H-1,2,3-triazol-4-yl)(4-fluorophenyl)methyl-d)amino)-4-(2-ethyl-2-phenylhydrazinyl)quinoline-3-carbonitrile] | 8200 | > 10000
[2H][C@](Nc1cc(Cl)c2ncc(C#N)c(NCC(C)(C)CC)c2c1)(c1ccc(F)cc1)c1cn(C2CC2)nn1 [Example 223, (S)-8-chloro-6-(((1-cyclopropyl-1H-1,2,3-triazol-4-yl)(4-fluorophenyl)methyl-d)amino)-4-((2,2-dimethylbutyl)amino)quinoline-3-carbonitrile] | 5 | 157
[2H][C@](Nc1cc(C2CC2)c2ncc(C#N)c(N[C@H](CC)c3ccccc3)c2c1)(c1ccc(F)cc1)c1cn(C2CC2)nn1 [Example 224, 8-cyclopropyl-6-(((S)-(1-cyclopropyl-1H-1,2,3-triazol-4-yl)(4-fluorophenyl)methyl-d)amino)-4-(((R)-1-phenylpropyl)amino)quinoline-3-carbonitrile] | 28 | 397
[2H][C@](Nc1cc(Cl)c2ncc(C#N)c(NCC(C)(C)COC)c2c1)(c1ccc(F)cc1)c1cn(C2CC2)nn1 [Example 225, (S)-8-chloro-6-(((1-cyclopropyl-1H-1,2,3-triazol-4-yl)(4-fluorophenyl)methyl-d)amino)-4-((3-methoxy-2,2-dimethylpropyl)amino) quinoline-3-carbonitrile] | 38 | 800
[2H][C@](Nc1cc(Cl)c2ncc(C#N)c(NC[C@@H](C)c3ccccc3)c2c1)(c1ccc(F)cc1)c1cn(C2CC2)nn1 [Example 226, 8-chloro-6-(((S)-(1-cyclopropyl-1H-1,2,3-triazol-4-yl)(4-fluorophenyl)methyl-d)amino)-4-(((S)-2-phenylpropyl)amino) quinoline-3-carbonitrile] | 16 | 606
[2H][C@](Nc1cc(Cl)c2ncc(C#N)c(N[C@H](C)c3ccccc3)c2c1)(c1ccc(F)cc1)c1cn(C2CC2)nn1 [Example 227, 8-chloro-6-(((S)-(1-cyclopropyl-1H-1,2,3-triazol-4-yl)(4-fluorophenyl)methyl-d)amino)-4-(((R)-1-phenylethyl)amino) quinoline-3-carbonitrile] | 11 | 426
